From patent USRE47689E1, “Compounds for treating spinal muscular atrophy” (PTC Therapeutics, Inc., priority 2011, dated 2019)

What was measured:
[1] = test system: SMN2 minigene (full length SMN2 minigene mRNA containing SMN2 exon 7); assay: SMN2 minigene mRNA splicing RT-qPCR assay in cultured cells; format: cell-based, human; settings: Homo sapiens, HEK293-H; HEK293H cells stably transfected with SMN2-A minigene; 24 hours; 7-point concentration curve; 1.5-fold relative to vehicle-treated cells; read-out: EC1.5x for production of full length SMN2 mRNA
How it was run: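 Read-out: full-length (exon 7-included) SMN2 minigene mRNA by multiplex RT-qPCR with GAPDH, efficiency-corrected (1+E)^−Ct, GAPDH-normalized and divided by vehicle. Stably transfected HEK293H cells, 24 h compound exposure, duplicates per concentration. Value is EC1.5x, reported as star ranges.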

[2] = test system: Smn protein; assay: Smn protein assay in cultured cells (SMN HTRF); format: cell-based, human; settings: 48 hours; for maximum fold (Fold) increase of Smn protein: SMA patient fibroblast cells, 7-point concentration data, fold increase relative to vehicle control (SMN HTRF); for EC1.5x (concentration giving 1.5-fold Smn protein increase): SMA Type 1 patient fibroblast cells (GM03813), 7-point concentration curve, SMN HTRF, concentration producing 1.5 times Smn protein vs DMSO vehicle control, read-out: EC1.5x for Smn protein expression
How it was run: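 Lysates in RIPA with protease inhibitors are incubated overnight at room temperature with HTRF anti-SMN antibodies. EC1.5x is derived from fold increase in ΔF over vehicle.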

melting point [°C]	SMILES	EC (1.5-fold) [1] [µM]	maximum fold (Fold) increase of Smn protein [2]	EC1.5x (concentration giving 1.5-fold Smn protein increase) [2] [nM]
123 to 126	CCc1cc(-c2cc3ccc(CCCN(C)C)cc3oc2=O)cn2cc(C)nc12 [Compound 910, 7-[3-(dimethylamino)propyl]-3-(8-ethyl-2-methylimidazo[1,2-a]pyridin-6-yl)-2H-chromen-2-one]	< 0.1	***** (fold increase >1.65)	< 300
179 to 186	Cc1cn2cc(-c3cc4ccc(N(C)[C@@H]5CCN(C)C5)cc4oc3=O)nc2c(C)n1 [Compound 707, 3-(6,8-dimethylimidazo[1,2-a]pyrazin-2-yl)-7-{methyl[(3R)-1-methylpyrrolidin-3-yl]amino}-2H-chromen-2-one]	< 0.1	**** (fold increase between >1.5 and ≤1.65)	300 to 1000
200 to 205	Cc1cc2cc(-c3cc4ccc(N5CCN(C)[C@@H](C)C5)cc4oc3=O)oc2c(C)n1 [Compound 805, 3-(5,7-dimethylfuro[2,3-c]pyridin-2-yl)-7-[(3S)-3,4-dimethylpiperazin-1-yl]-2H-chromen-2-one]	< 0.1	***** (fold increase >1.65)	< 300
215 to 217	Cc1nc2ccc(-c3cc4ccc(N5CCN(C)CC5)cc4oc3=O)cc2s1 [Cpd 769, 3-(2-methyl-1,3-benzothiazol-6-yl)-7-(4-methylpiperazin-1-yl)-2H-chromen-2-one]	0.3 to 1	** (fold increase between >1.2 and ≤1.35)	–
162 to 165	COc1cccc(-c2cc3ccc(N4CCNCC4)cc3oc2=O)n1 [Cpd 218, 3-(6-methoxypyridin-2-yl)-7-(piperazin-1-yl)-2H-chromen-2-one]	0.3 to 1	** (fold increase between >1.2 and ≤1.35)	–
135 to 138	CCN1C[C@@H]2C[C@H]1CN2c1ccc2cc(-c3cn4cc(Cl)nc(C)c4n3)c(=O)oc2c1 [Compound 791, 3-(6-chloro-8-methylimidazo[1,2-a]pyrazin-2-yl)-7-[(1S,4S)-5-ethyl-2,5-diazabicyclo[2.2.1]hept-2-yl]-2H-chromen-2-one]	< 0.1	*** (fold increase between >1.35 and ≤1.5)	1000 to 3000
165 to 168	Cc1cn2cc(-c3cc4ccc(OC5CCN(CCO)CC5)cc4oc3=O)nc2c(C)n1 [Compound 899, 3-(6,8-dimethylimidazo[1,2-a]pyrazin-2-yl)-7-{[1-(2-hydroxyethyl)piperidin-4-yl]oxy}-2H-chromen-2-one]	< 0.1	***** (fold increase >1.65)	< 300
218 to 223	CCN1CCC(c2ccc3cc(-c4cn5cc(C)nc(C)c5n4)c(=O)oc3c2)CC1 [Compound 749, 3-(6,8-dimethylimidazo[1,2-a]pyrazin-2-yl)-7-(1-ethylpiperidin-4-yl)-2H-chromen-2-one]	< 0.1	***** (fold increase >1.65)	< 300

More lines, now with the values behind:

SMILES	melting point [°C]	EC (1.5-fold) [1] [µM]	maximum fold (Fold) increase of Smn protein [2]	EC1.5x (concentration giving 1.5-fold Smn protein increase) [2] [nM]
O=c1oc2cc(N3CCNCC3)ccc2cc1-c1ccc2c(c1)OCO2 [Compound 486, 3-(1,3-benzodioxol-5-yl)-7-(piperazin-1-yl)-2H-chromen-2-one]	218 to 220	3 to 30	* (maximum fold increase of ≤1.2)	–
Cc1cc(F)c2nc(-c3cc4ccc(N5CCCNCC5)cc4oc3=O)cn2c1 [Compound 427, 7-(1,4-diazepan-1-yl)-3-(8-fluoro-6-methylimidazo[1,2-a]pyridin-2-yl)-2H-chromen-2-one]	242 to 252	0.3 to 1	*** (fold increase between >1.35 and ≤1.5)	–
O=c1oc2cc(N3CCNCC3)ccc2cc1-c1cn2cccc(F)c2n1 [Compound 149, 3-(8-fluoroimidazo[1,2-a]pyridin-2-yl)-7-(piperazin-1-yl)-2H-chromen-2-one]	236 to 238	1 to 3	*** (fold increase between >1.35 and ≤1.5)	–
Cc1cn2cc(-c3cc4ccc(N5CCN(C)CC5)cc4oc3=O)nc2s1 [Compound 97, 3-(2-methylimidazo[2,1-b][1,3]thiazol-6-yl)-7-(4-methylpiperazin-1-yl)-2H-chromen-2-one]	> 300	1 to 3	*** (fold increase between >1.35 and ≤1.5)	3000 to 10000
O=c1oc2cc(N3CCNCC3)cc(F)c2cc1-c1nc2ccccc2o1 [Compound 159, 3-(1,3-benzoxazol-2-yl)-5-fluoro-7-(piperazin-1-yl)-2H-chromen-2-one]	245 to 250	0.3 to 1	*** (fold increase between >1.35 and ≤1.5)	–
CN1CCN(c2ccc3cc(-c4nc(C(F)(F)F)cs4)c(=O)oc3c2)CC1.O=C(O)C(F)(F)F [Compound 53, 7-(4-methylpiperazin-1-yl)-3-[4-(trifluoromethyl)-1,3-thiazol-2-yl]-2H-chromen-2-one trifluoroacetate]	260 to 270	3 to 30	** (fold increase between >1.2 and ≤1.35)	–
Cc1nccn2cc(-c3cc4ccc(N5CCN(C)CC5)cc4oc3=O)cc12 [Compound 557, 7-(4-methylpiperazin-1-yl)-3-(1-methylpyrrolo[1,2-a]pyrazin-7-yl)-2H-chromen-2-one]	190 to 192	0.3 to 1	*** (fold increase between >1.35 and ≤1.5)	–
Cc1ccn2cc(-c3cc4ccc(NCCN(C)C)cc4oc3=O)nc2c1 [Compound 470, 7-{[2-(dimethylamino)ethyl]amino}-3-(7-methylimidazo[1,2-a]pyridin-2-yl)-2H-chromen-2-one]	156 to 159	1 to 3	* (maximum fold increase of ≤1.2)	–
Cc1ccn2cc(-c3cc4ccc(N5CCNC6(CCCC6)C5)cc4oc3=O)nc2c1 [Compound 596, 7-(6,9-diazaspiro[4.5]dec-9-yl)-3-(7-methylimidazo[1,2-a]pyridin-2-yl)-2H-chromen-2-one]	180	0.3 to 1	** (fold increase between >1.2 and ≤1.35)	–
O=c1oc2cc(N3CCNCC3)ccc2cc1-c1cc2ccccc2s1 [Compound 407, 3-(1-benzothiophen-2-yl)-7-(piperazin-1-yl)-2H-chromen-2-one]	243 to 245	0.3 to 1	* (maximum fold increase of ≤1.2)	–
Cc1cccc2nc(-c3cc4ccc(N5CCNCC5)cc4oc3=O)cn12 [Compound 132, 3-(5-methylimidazo[1,2-a]pyridin-2-yl)-7-(piperazin-1-yl)-2H-chromen-2-one]	239 to 249	1 to 3	* (maximum fold increase of ≤1.2)	–
COc1cccc(-c2cc3ccc(N4CCCN(C)CC4)cc3oc2=O)n1 [Compound 359, 3-(6-methoxypyridin-2-yl)-7-(4-methyl-1,4-diazepan-1-yl)-2H-chromen-2-one]	155 to 158	3 to 30	* (maximum fold increase of ≤1.2)	–
O=c1oc2cc(N3CCNCC3)ccc2cc1-c1cccc(OC2CCC2)n1 [Compound 414, 3-[6-(cyclobutyloxy)pyridin-2-yl]-7-(piperazin-1-yl)-2H-chromen-2-one]	166 to 168	3 to 30	* (maximum fold increase of ≤1.2)	–
Cc1cn2cc(-c3cc4ccc(N5CCN(C)[C@H](C)C5)cc4oc3=O)nc2cn1 [Compound 628, 7-[(3R)-3,4-dimethylpiperazin-1-yl]-3-(6-methylimidazo[1,2-a]pyrazin-2-yl)-2H-chromen-2-one]	256 to 258	< 0.1	**** (fold increase between >1.5 and ≤1.65)	< 300
C[C@@H]1CN(c2ccc3cc(C(=O)Nc4ccccc4)c(=O)oc3c2)C[C@H](C)N1 [Compound 30, 7-[(3R,5S)-3,5-dimethylpiperazin-1-yl]-2-oxo-N-phenyl-2H-chromene-3-carboxamide]	231 to 233	1 to 3	* (maximum fold increase of ≤1.2)	–
Cc1ccn2nc(-c3cc4ccc(N5CCN[C@H](C)C5)cc4oc3=O)cc2c1 [Compound 306, 7-[(3R)-3-methylpiperazin-1-yl]-3-(5-methylpyrazolo[1,5-a]pyridin-2-yl)-2H-chromen-2-one]	183 to 187	0.1 to 0.3	*** (fold increase between >1.35 and ≤1.5)	–
O=c1oc2cc(CN3CCCCC3)ccc2cc1-c1nc2ccccc2s1 [Compound 59, 3-(1,3-benzothiazol-2-yl)-7-(piperidin-1-ylmethyl)-2H-chromen-2-one]	201 to 205	1 to 3	** (fold increase between >1.2 and ≤1.35)	–
